Laboratory results from the COVID Moonshot data (paper PMC11187573), “Identification of SARS-CoV-2 Mpro inhibitors through deep reinforcement learning for de novo drug design and computational chemistry approaches” (RSC Medicinal Chemistry, 2024).

Columns and labels:
[1] = target: SARS-CoV-2 Main Protease (SARS-CoV-2) (UniProt P0DTD1)
[2] = target: SARS-CoV-2 Main Protease (SARS-CoV-2) (UniProt P0DTD1); remark: listed apart in the source

Row | Structure (SMILES) | inhibition ([1]; 20.0 µM) | inhibition ([1]; 50.0 µM) | inhibition ([2]; 50.0 µM) | relative solubility at 20 uM | relative solubility at 100 uM | inhibition ([2]; 20.0 µM) | IC50 [2] | IC50 [1]
1 | Cc1noc(C)c1NC(=O)Cc1cccc(Cl)c1Cl | -2.3% | -6.85% | 0% | 1 | 1 | – | – | –
2 | O=C1CC[C@H](C(=O)Nc2cccc(Br)c2)N1 (stereo in doubt) | 15% | 5.83% | 0% | 1 | 1 | – | – | –
3 | O=C(NCc1cccnn1)Nc1cccc(N2CCC2=O)c1 | 3.61% | 6.82% | 0% | 1 | 1 | 0% | – | –
4 | CO[C@H](C)C(=O)N(C)c1cnccc1C (stereo in doubt) | 3.08% | 4.99% | 18% | 1.01 | 0.99 | – | – | –
5 | N#Cc1ccnc(CNC(=O)Cc2c[nH]c3ncccc23)c1 | -23.2% | -17.2% | – | 0.97 | 0.98 | 0% | – | –
6 | NS(=O)(=O)c1ccc2c(c1)CN(CC1CCN(C(=O)CCl)CC1)CC2 | 30.8% | 60.3% | 91.1% | 1 | 1 | – | 31.2 µM | –
7 | CN(Cc1ccc(OCc2cccs2)cc1)C(=O)Cn1nnc2ccccc21 | 2.49% | 10.2% | – | 0.56 | -0.05 | 0% | – | –
8 | O=C(c1cc(=O)[nH]c2ccccc12)N1CCN(c2ccccc2F)CC1 | 50.7% | 75.6% | 46.4% | 0.98 | 0.99 | – | – | –
9 | CNS(=O)(=O)c1ccc(C(C)NC(=O)NC(C)(C)C)cc1 (stereo not drawn) | -0.809% | -0.25% | 0% | 1 | 1 | 0% | – | –
10 | C=CC(=O)N(c1ccc(C2(C)CC2)cc1)C(C(=O)Nc1c(C)cccc1CC)c1cccnc1 (stereo not drawn) | – | 20.9% | 20.4% | 0.8 | 0.68 | 0% | – | –
11 | C=CC(=O)N(c1ccc(N(C)C)c(C)c1)C(C(=O)Nc1ccc(Br)cc1)c1cccnc1 (stereo not drawn) | 3.45% | 3.43% | – | 0.84 | 0.74 | 0% | – | –
12 | NC(=O)C1CCN(c2nnc(C3CCC(=O)N3)n2CCc2cc(F)cc(F)c2)CC1 (stereo not drawn) | 1.27% | 3.83% | 0% | 1 | 1 | – | – | –
13 | CC(Cl)C(=O)N1CCC(C(=O)N2CCCCC2)CC1 (stereo not drawn) | -11.9% | -27% | 0% | 0.99 | 1 | 0% | – | –
14 | N#Cc1ccc(CNC(=O)Cc2c[nH]c3ncccc23)nc1 | 4.15% | 0.616% | – | 1 | 1 | 0% | – | –
15 | O=C(CCl)N1CCN(S(=O)(=O)c2c(F)cccc2F)CC1 | 98.7% | 104% | 99.2% | 0.96 | 0.88 | 98.6% | 2.62 µM | –
16 | COc1ccc2[nH]cc(CCNS(C)(=O)=O)c2c1 | -4.19% | -4.39% | – | 0.92 | 0.86 | 0% | – | –
17 | COc1cc(CNC(=O)Cc2ncc[nH]2)c2ccccc2n1 | – | -23.1% | 15.6% | 1 | 1 | 0% | – | –
18 | Cc1ccc(-c2cc(C(F)(F)F)nn2-c2ccc(S(N)(=O)=O)cc2)cc1 | 6.23% | 11.9% | – | 0.91 | 0.79 | 2.17% | – | –
19 | O=C(Cc1ccc(Cl)s1)Nc1cccnc1 | 0.922% | 11.5% | – | 1 | 1 | 0% | – | –

Row | Structure (SMILES) | inhibition ([1]; 20.0 µM) | inhibition ([1]; 50.0 µM) | inhibition ([2]; 50.0 µM) | relative solubility at 20 uM | relative solubility at 100 uM | inhibition ([2]; 20.0 µM) | IC50 [2] | IC50 [1]
20 | O=C(Cc1cncnc1)Nc1cccc(CCCc2ccccc2)c1 | 1.12% | 10.1% | 0% | 0.96 | 0.94 | 0% | – | –
21 | CC1(C)CCCN1S(=O)(=O)c1ccc2c(c1)C(=O)C(=O)N2 | -5.91% | -10.7% | 0% | 0.94 | 0.89 | – | – | –
22 | Cc1ccncc1N(C)C(=O)[C@@H]1C[C@H]1CF (stereo in doubt) | -7.38% | 1.67% | 4.57% | 1.01 | 1.01 | – | – | –
23 | CCOc1ccccc1/C=C1/C(=O)NC(=O)c2ccccc21 | -36.4% | 4.82% | 39.6% | 0.97 | 0.68 | – | – | –
24 | O=C(NCc1ccns1)Nc1cccc(CN2CCCC2=O)c1 | -0.28% | -2.05% | 0% | 1 | 0.97 | 0% | – | –
25 | Cc1ccc(C)c(N(C)C(=O)Cc2cnn(C)c2C)c1 | 7.75% | 11.4% | 0% | 0.97 | 0.98 | – | – | –
26 | O=C(CCl)N1CCN(Cc2cccc(Cl)c2)C[C@@H]1Cc1ccccc1 (stereo in doubt) | 22.5% | 45.2% | 66.6% | 0.97 | 0.92 | – | 18.9 µM | –
27 | O=C(Cc1c[nH]c2ncccc12)N(Cc1c(F)cccc1Cl)c1ccc2[nH]c(=O)[nH]c2c1 | 6.29% | -1.08% | 12.4% | 0.95 | 0.88 | – | – | –
28 | O=C(NCCN1CCN(c2ccccc2)CC1)NCc1ccccn1 | – | 12.5% | 0% | 0.99 | 0.99 | 0% | – | –
29 | O=C(CCl)N1CCN(C(c2ccccc2)C2CCCCC2)CC1 (stereo not drawn) | 95.8% | 98.1% | 95.6% | 0.98 | 0.78 | – | 0.644 µM | 4.13 µM
30 | O=C(c1cc2sccc2s1)N1CCOC(CN2CCOCC2)C1 (stereo not drawn) | 4.6% | 7.85% | 2.34% | 1 | 0.99 | – | – | –
31 | O=C(Nc1ccccc1Cl)c1cc(Cl)ccc1O | 5.47% | 5.58% | – | 0.91 | 0.7 | 7.14% | – | –
32 | C=CC(=O)N(c1ccc(C(C)(C)C)cc1)C(C(=O)Nc1c(C)cccc1CC)c1cccnc1 (stereo not drawn) | – | -3.74% | 0% | 0.98 | 0.69 | 0% | – | –
33 | Sc1nc2ccccc2c2nc(CCc3ccccc3)nn12 | -0.837% | -6.97% | 0% | 0.93 | 0.89 | – | – | –
34 | O=C(NCc1ccc(Cl)cc1CN1CCN(C(=O)CCl)CC1)[C@@H]1CCCOC1 (stereo in doubt) | 56.7% | 77.9% | 100% | 1 | 1 | – | 20.1 µM | –
35 | CC(=O)NCCc1c[nH]c2c(CN3CCN(C(=O)CCl)CC3)cccc12 | 62.8% | 85.7% | 100% | 0.95 | 0.95 | – | 11.5 µM | –
36 | C=CC(=O)N(c1ccc(C(F)(F)F)cc1)C(C(=O)Nc1c(C)cccc1CC)c1cccnc1 (stereo not drawn) | 22.3% | 38.6% | – | 0.89 | 0.79 | 23.9% | – | –
37 | C=CC(=O)N1CCN(S(=O)(=O)c2ccccc2-c2ccc(Nc3ccc(C#N)cn3)cc2)CC1 | -11.3% | -6.3% | 0% | 0.75 | 0.61 | – | – | –
